Laboratory results taken from ChEMBL document CHEMBL2380299, “Sungsanpin, a lasso peptide from a deep-sea streptomycete” (J Nat Prod, 2013).
Calls of active or inactive are those of the source. The calls are words filed in the database; no cut-off is given here. Where a SMILES comes first, the peptide text is derived from it. Bridges are numbered along the chain shown (N, C = ends).

Experiments:
A549 [1] = test: Antiinvasive activity against human A549 cells assessed as MMP-9 mRNA level after 24 hrs by RT-PCR analysis; assay type: functional, cell-based
A549 [2] = test: Antiinvasive activity against human A549 cells assessed as MMP-2 mRNA level after 24 hrs by RT-PCR analysis; assay type: functional, cell-based
A549 [3] = test: Antiinvasive activity against human A549 cells assessed as increase in TIMP-2 mRNA level after 24 hrs by RT-PCR analysis; assay type: functional, cell-based
A549 [4] = test: Antiinvasive activity against human A549 cells assessed as increase in TIMP-1 mRNA level after 24 hrs by RT-PCR analysis; assay type: functional, cell-based
A549 [5] = test: Antiinvasive activity against human A549 cells at 50 uM after 24 hrs by micro plate reader analysis relative to control; assay type: functional
A549 [6] = test: Antiinvasive activity against human A549 cells at 5 uM after 24 hrs by micro plate reader analysis relative to control; assay type: functional
A549 [7] = test: Cytotoxicity against human A549 cells up to 50 uM after 24 hrs by CCK-8 assay; assay type: cell-based; settings: a549, 24 h

With `CC[C@H](C)[C@@H]1NC(=O)[C@@H]2CCCN2C(=O)[C@H](CCCCN)NC(=O)[C@H](CO)NC(=O)CNC(=O)[C@H](Cc2ccccc2)NC(=O)CNC(=O)C[C@@H](C(=O)N[C@@H](CO)C(=O)N[C@@H](Cc2ccccc2)C(=O)NCC(=O)N[C@@H](CC(C)C)C(=O)N[C@@H](CO)C(=O)N[C@@H](Cc2c[nH]c3ccccc23)C(=O)N[C@@H](CC(C)C)C(=O)O)NC1=O` [SUNGSANPIN] (GFGSKPIDSFGLSWL-OH; lactam N-8) the Activity (A549 [1]) was “inactive”, the Activity (A549 [2]) was “inactive” and the Activity (A549 [3]) was “Dose-dependent effect”. The Activity (A549 [4]) was “Dose-dependent effect”, the Activity (A549 [5]) was 47% and the Activity (A549 [6]) was 25%. The Activity (A549 [7]) was “Non-toxic”.
